One block for each compound: values may come before it.
Assay: photoluminescence quantum yield (fraction); solvent given as SMILES

SMILES: CCN(CC)c1ccc(/C=C/c2ccc(-c3ccc(/C=C/c4ccc(N(CC)CC)cc4)s3)s2)cc1
- photoluminescence quantum yield (in C1CCOC1): 0.14
- photoluminescence quantum yield (in CC#N): 0.13
- photoluminescence quantum yield (in CC(C)=O): 0.13
- photoluminescence quantum yield (in CN(C)C=O): 0.12
- photoluminescence quantum yield (in Cc1ccccc1): 0.14

- photoluminescence quantum yield (in C1CCOC1): 0.0045
SMILES: C(=C(c1ccccc1)c1ccccc1)c1ccc(-c2cc(-c3ccc(C=C(c4ccccc4)c4ccccc4)cc3)cc(-c3ccc(C=C(c4ccccc4)c4ccccc4)cc3)c2)cc1

SMILES: CC1(C)c2ccccc2N(c2ccc(-c3ccc(C#N)c(C#N)n3)cc2)c2ccccc21
- photoluminescence quantum yield (in Cc1ccccc1): 0.489
- photoluminescence quantum yield (in N#Cc1ccc2c(c1)c1ccccc1n2-c1cccc(-n2c3ccccc3c3ccccc32)c1): 0.904

- photoluminescence quantum yield (in ClCCl): 0.35
SMILES: CCCCN(CCCC)c1ccc2c#cc3cc4c#cc5ccc(C(F)(F)F)cc5c#cc#cc5cc(C(F)(F)F)ccc5c#cc4cc3c#cc3ccc(N(CCCC)CCCC)cc3c#cc#cc2c1

- photoluminescence quantum yield (in C1CCCCC1): 0.057
- photoluminescence quantum yield (in CC#N): 0.72
- photoluminescence quantum yield (in CO): 0.067
- photoluminescence quantum yield (in ClC(Cl)Cl): 0.12
SMILES: CN(C)c1ccc2nc(-c3ccc(/C=N/c4ccccc4)cc3)sc2c1

- photoluminescence quantum yield (in CCO): 0.6
SMILES: c1ccc2cc3cnccc3cc2c1

- photoluminescence quantum yield (in C1CCCCC1): 0.72
- photoluminescence quantum yield (in CC#N): 0.62
SMILES: C[Si](C)(c1cccc2ccccc12)c1c2ccccc2cc2ccccc12

- photoluminescence quantum yield (in C1CCOC1): 0.053
SMILES: CN(C)c1ccc(C(=Cc2ccc(/C=C(\C#N)c3ccccc3)cc2)c2ccc(N(C)C)cc2)cc1

- photoluminescence quantum yield (in CCCO): 0.083
SMILES: CCOC(=O)c1ccc2c(c1)sc1c3ccc(C(=O)OCC)cc3sc21

- photoluminescence quantum yield (in CC#N): 0.43
SMILES: CC(=O)c1c2c(c(C(C)=O)c3c1OC(CC(=O)O)O3)OCO2

- photoluminescence quantum yield (in C1CCOC1): 0.32
SMILES: Cc1ccc(-c2ccc(-c3ccc(C)cc3)c(/C(=C(/c3ccccc3)c3cc(-c4ccc(C)cc4)ccc3-c3ccc(C)cc3)c3ccccc3)c2)cc1

- photoluminescence quantum yield (in ClC(Cl)Cl): 0.27
SMILES: C(=C\c1ccc(N(c2ccccc2)c2ccccc2)cc1)/c1ccc(-c2nc(-c3ccc(/C=C/c4ccc(N(c5ccccc5)c5ccccc5)cc4)cc3)nc(-c3ccc(/C=C/c4ccc(N(c5ccccc5)c5ccccc5)cc4)cc3)n2)cc1

- photoluminescence quantum yield (in ClCCl): 0.76
SMILES: COc1cc(-c2cnc(-c3ccncc3)o2)cc(OC)c1OC

- photoluminescence quantum yield (in ClCCl): 0.83
SMILES: CCCCC(CC)COc1ccc2nc(-c3ccc(-c4ccc(OC)cc4)s3)sc2c1 (stereo unspecified)

- photoluminescence quantum yield (in ClCCl): 0.42
SMILES: Clc1ccc(-c2cccc3ncc(-c4ccccc4)n23)cc1

- photoluminescence quantum yield (in C1COCCO1): 0.83
- photoluminescence quantum yield (in CC#N): 0.6
- photoluminescence quantum yield (in CO): 0.17
- photoluminescence quantum yield (in ClCCl): 0.81
SMILES: COC(=O)c1nc2cnc(N(C)C)nc2n1Cc1ccccc1

SMILES: O=c1c2cc(-n3c4ccccc4c4ccccc43)ccc2sc2ccc(-n3c4ccccc4c4ccccc43)cc12
- photoluminescence quantum yield (in O=P(c1ccccc1)(c1ccccc1)c1ccccc1Oc1ccccc1P(=O)(c1ccccc1)c1ccccc1): 0.412

- photoluminescence quantum yield (in CCCCCC): 0.52
- photoluminescence quantum yield (in CO): 0.56
- photoluminescence quantum yield (in ClCCl): 0.4
SMILES: Cc1ccc2ccc3c(C)ccc4ccc1c2c43

SMILES: Cc1cc(C)c2c(c1)c1cc(C)cc(C)c1n2-c1ccc2c(c1)Sc1cc3c(cc1B2c1c(C(C)C)cc(C(C)C)cc1C(C)C)B(c1c(C(C)C)cc(C(C)C)cc1C(C)C)c1ccccc1S3
- photoluminescence quantum yield (in Cc1ccccc1): 0.17
- photoluminescence quantum yield (in O=P(c1ccccc1)(c1ccccc1)c1ccc2oc3ccc(P(=O)(c4ccccc4)c4ccccc4)cc3c2c1): 0.93

- photoluminescence quantum yield (in CC#N): 0.558
- photoluminescence quantum yield (in CCO): 0.048
- photoluminescence quantum yield (in CN(C)C=O): 0.041
- photoluminescence quantum yield (in CS(C)=O): 0
- photoluminescence quantum yield (in ClCCl): 0.28
SMILES: c1ccc(-c2csc(-c3ccncc3)n2)cc1

- photoluminescence quantum yield (in c1ccccc1): 0.054
SMILES: CCOC(=O)c1sc2nc(C)c(CC)c(C#N)c2c1N

SMILES: N#Cc1ccc(-n2cccc2)cc1
- photoluminescence quantum yield (in C1CCOC1): 0.024
- photoluminescence quantum yield (in CC#N): 0.024
- photoluminescence quantum yield (in CCCCCC): 0.077
- photoluminescence quantum yield (in CCOCC): 0.023
- photoluminescence quantum yield (in ClCCl): 0.022

- photoluminescence quantum yield (in CC#N): 0.25
- photoluminescence quantum yield (in CCO): 0.12
- photoluminescence quantum yield (in CO): 0.06
- photoluminescence quantum yield (in O): 0.02
SMILES: CCCC(=O)c1c2c(c(C(=O)CCC)c3c1OC(CC(=O)OC)(C(=O)O)O3)OCO2

- photoluminescence quantum yield (in C1CCOC1): 0.45
SMILES: CCCCCOc1cc2oc(=O)c3c4occc4c4ccc5cccc6c(c1)c2c3c4c56

- photoluminescence quantum yield (in CCO): 0.119
SMILES: CC1(C)C(/C=C/C2=C(Cl)C(=C/C=C3/N(CCCCCC(=O)O)c4ccccc4C3(C)C)/CCC2)=[N+](CCCCCC(=O)O)c2ccccc21

- photoluminescence quantum yield (in ClC(Cl)Cl): 0.972
SMILES: CSc1ccc(C#Cc2ccc(C#Cc3ccc(C#Cc4ccccc4C#N)cc3C#N)cc2C#N)cc1

- photoluminescence quantum yield (in C1CCOC1): 0.0033
SMILES: C(=C1c2ccccc2CCc2ccccc21)c1ccc(-c2ccc(C=C3c4ccccc4CCc4ccccc43)cc2)cc1

- photoluminescence quantum yield (in ClCCl): 0.185
SMILES: Cc1cc2ccccc2c2c1c1ccccc1n2C(=O)OC(C)(C)C

- photoluminescence quantum yield (in ClCCl): 0.93
SMILES: O=C1c2cc3ccccc3cc2C2=Nc3ccc4ccccc4[n+]3[B-](F)(F)N12

- photoluminescence quantum yield (in O): 0.001
SMILES: O=c1ccc2ccccc2o1

SMILES: CCC1(CC)c2cc(C=O)ccc2-c2ccc(N(C)C)cc21
- photoluminescence quantum yield (in C1CCCCC1): 0.02
- photoluminescence quantum yield (in CC#N): 0.81
- photoluminescence quantum yield (in CCO): 0.64
- photoluminescence quantum yield (in CCOCC): 0.71
- photoluminescence quantum yield (in CS(C)=O): 0.92
- photoluminescence quantum yield (in ClCCl): 0.91
- photoluminescence quantum yield (in c1ccccc1): 0.82

- photoluminescence quantum yield (in C1CCOC1): 0.59
SMILES: COc1ccc(-c2cc3c(cc2OC)-c2c(c4c(c5c2-c2cc(OC)c(-c6ccc(OC)cc6)cc2C5)C(=O)N(CCC(C)C)C4=O)C3)cc1

SMILES: N#Cc1ccc(-c2ccc3c(c2)c2cc(-c4ccc(C#N)cc4)ccc2c2c3nc(-c3ccc(N(c4ccccc4)c4ccccc4)cc3)n2-c2ccccc2)cc1
- photoluminescence quantum yield (in C1CCOC1): 0.42
- photoluminescence quantum yield (in CC#N): 0.23
- photoluminescence quantum yield (in CCCCCC): 0.9
- photoluminescence quantum yield (in CCOCC): 0.59

SMILES: CC[N+]1(CC)CN2C(=N1)C(C(=O)O)=Cc1cc(C)ccc12
- photoluminescence quantum yield (in O): 0.269

SMILES: CC1(C)c2ccccc2N(c2ccc(-c3nnc(-c4cc(-c5ccccc5)c(-c5ccccc5)c(-c5ccccc5)c4-c4ccccc4)o3)cc2)c2ccccc21
- photoluminescence quantum yield (in Cc1ccccc1): 0.235
- photoluminescence quantum yield (in c1ccc(-n2c(-c3c(-n4c5ccccc5c5ccccc54)cccc3-n3c4ccccc4c4ccccc43)nc3ccccc32)cc1): 0.359

- photoluminescence quantum yield (in C1CCOC1): 0.56
SMILES: CCC1(CC)c2ccccc2-c2c1c1c(c3c2C(CC)(CC)c2cc(B(c4c(C)cc(C)cc4C)c4c(C)cc(C)cc4C)ccc2-3)C(CC)(CC)c2ccccc2-1

- photoluminescence quantum yield (in ClC(Cl)Cl): 0.09
SMILES: Cc1ccc(/C2=c3\cc/c(o3)=C(\c3ccc(C)cc3)c3ccc([nH]3)-c3ccc4n3[B-](F)(F)[N+]3=C(C=CC3=C4c3cccs3)c3ccc2[nH]3)cc1

- photoluminescence quantum yield (in CC#N): 0.65
- photoluminescence quantum yield (in ClCCl): 0.85
SMILES: Cn1c(=O)cc(C(=O)c2ccccc2)c2sc(-c3ccc(OC(F)(F)F)cc3)cc21

- photoluminescence quantum yield (in C1CCOC1): 0.025
- photoluminescence quantum yield (in ClC(Cl)Cl): 0.03
- photoluminescence quantum yield (in ClCCl): 0.015
SMILES: COc1ccc2cc(C#Cc3ccc([N+](=O)[O-])cc3)ccc2c1

- photoluminescence quantum yield (in ClCCl): 0.92
SMILES: c1cc2ccc3ccc(OP4(Oc5ccc6ccc7cccc8ccc5c6c78)=NP(Oc5ccc6ccc7cccc8ccc5c6c78)(Oc5ccc6ccc7cccc8ccc5c6c78)=NP(Oc5ccc6ccc7cccc8ccc5c6c78)(Oc5ccc6ccc7cccc8ccc5c6c78)=N4)c4ccc(c1)c2c34

- photoluminescence quantum yield (in C1CCOC1): 0.42
- photoluminescence quantum yield (in CC#N): 0.26
- photoluminescence quantum yield (in CO): 0.16
- photoluminescence quantum yield (in ClCCl): 0.34
SMILES: Clc1ccc(/C=C/c2ccc(-c3nc4c5cccnc5c5ncccc5c4[nH]3)cc2)cc1

- photoluminescence quantum yield (in CC#N): 0.47
- photoluminescence quantum yield (in CCCCCC): 0.31
SMILES: c1ccc2c(c1)[nH]c1ncccc12

- photoluminescence quantum yield (in C1CCCCC1): 0.19
SMILES: COc1ccc2c3c(c4ccc(OC)cc4c2c1)C(C)(C)c1ccccc1-3

- photoluminescence quantum yield (in CCO): 0.033
- photoluminescence quantum yield (in ClCCl): 0.9
SMILES: CCN(CC)c1ccc2cc(C#N)/c(=N\C(=O)c3ccco3)oc2c1

- photoluminescence quantum yield (in c1cc(-n2c3ccccc3c3ccccc32)cc(-n2c3ccccc3c3ccccc32)c1): 0.38
SMILES: c1ccc(-c2nc(-c3ccccc3)nc(-c3ccc(-c4ccc(N5c6ccccc6[Si](c6ccccc6)(c6ccccc6)c6ccccc65)cc4)cc3)n2)cc1

- photoluminescence quantum yield (in ClCCl): 0.00154
SMILES: CCOC(=O)C1=C(C(=O)OCC)C2(c3ccccc3-c3ccccc32)[C@@H](c2ccccc2)C=C2c3cc(OC)c(OC)cc3CCN21

- photoluminescence quantum yield (in C1CCOC1): 0.062
- photoluminescence quantum yield (in C1COCCO1): 0.028
- photoluminescence quantum yield (in CC#N): 0.082
- photoluminescence quantum yield (in CCCCCCC): 0.05
- photoluminescence quantum yield (in CCO): 0.067
- photoluminescence quantum yield (in CO): 0.066
- photoluminescence quantum yield (in O): 0.38
SMILES: CC1(C)CC(=O)C2=C(C1)Oc1ccc3cc(O)ccc3c1C2c1ccccn1 (stereo unspecified)

SMILES: CCCCCCCCCCCCCCCCOc1cc(C#Cc2ccc3ccccc3c2)c(OCCCCCCCCCCCCCCCC)cc1C#Cc1ccc(C=C(C#N)C#N)cc1
- photoluminescence quantum yield (in Brc1ccccc1): 0.43
- photoluminescence quantum yield (in C1CCCCC1): 0.9
- photoluminescence quantum yield (in C1CCOC1): 0.5
- photoluminescence quantum yield (in C1COCCO1): 0.5
- photoluminescence quantum yield (in CCCCCC): 0.87
- photoluminescence quantum yield (in CCCCCCCCO): 0.35
- photoluminescence quantum yield (in CCCCOCCCC): 0.81
- photoluminescence quantum yield (in CCOC(C)=O): 0.23
- photoluminescence quantum yield (in CCOCC): 0.79
- photoluminescence quantum yield (in Cc1ccccc1): 0.82
- photoluminescence quantum yield (in ClC(Cl)(Cl)Cl): 0.81
- photoluminescence quantum yield (in ClC(Cl)Cl): 0.78
- photoluminescence quantum yield (in ClCCl): 0.19

- photoluminescence quantum yield (in ClCCl): 0.99
SMILES: C1=C2C3=C(C4=[N+]2[B-]2(Oc5ccccc54)Oc4ccccc4-c4c5c(c1n42)C1CCC5CC1)C1CCC3CC1 (stereo unspecified)

- photoluminescence quantum yield (in C1CCCCC1): 0.67
- photoluminescence quantum yield (in CC#N): 0.21
SMILES: C[Si](C)(c1cccc2ccccc12)[Si](C)(C)c1c2ccccc2cc2ccccc12

- photoluminescence quantum yield (in C1CCOC1): 0.084
SMILES: Cc1sc(-c2ccc(-c3nc(-c4ccccc4)c(-c4ccccc4)[nH]3)cc2)c(C)c1C1=C(c2c(C)n(C)c3ccccc23)C(F)(F)C(F)(F)C1(F)F

- photoluminescence quantum yield (in ClCCl): 0.6
SMILES: Cn1c2ccccc2c2cc(/C=C/C3=[O+][B-](F)(F)OC(/C=C/c4ccc5c(c4)c4ccccc4n5C)=C3c3ccccc3)ccc21

- photoluminescence quantum yield (in CS(C)=O): 0.31
SMILES: Cc1cccn2c1cc1c3ccccc3nc(-c3ccc(Cl)o3)c12

From the Deep4Chem optical property database
